Assay results from ChEMBL document CHEMBL1136660, “Novel 5-cyclopropyl-1,4-benzodiazepin-2-ones as potent and selective I(Ks)-blocking class III antiarrhythmic agents” (Bioorg Med Chem Lett, 2003).

Species: Cavia porcellus
Assay: Inhibitory concentration against IKr current was measured in isolated guinea pig myocytes during a 0.5 s voltage clamp step from -50 to -10 mV
Type: functional
Conditions: not given

SMILES | IC50 [nM]
CC(C)C1=NC(NC(=O)Cc2ccc(C(F)(F)F)cc2C(F)(F)F)C(=O)N(CC(F)(F)F)c2ccccc21 (configuration not stated) | > 1000
CCCN1C(=O)C(NC(=O)Cc2ccc(C(F)(F)F)cc2C(F)(F)F)N=C(C2CC2)c2ccccc21 (single isomer, unassigned; (+)) | > 1000
CC[C@@H](C)N1C(=O)C(NC(=O)Cc2ccc(C(F)(F)F)cc2C(F)(F)F)N=C(C2CC2)c2ccccc21 (single isomer, unassigned; (+)) | > 1000
O=C(Cc1ccc(C(F)(F)F)cc1C(F)(F)F)NC1N=C(C2CC2)c2ccccc2N(CC(F)(F)F)C1=O (single isomer, unassigned; (+)) | > 1000
CN1C(=O)C(NC(=O)Cc2ccc(C(F)(F)F)cc2C(F)(F)F)N=C(C2CC2)c2ccccc21 (single isomer, unassigned; (-)) | > 1000
CC[C@H](C)N1C(=O)C(NC(=O)Cc2ccc(C(F)(F)F)cc2C(F)(F)F)N=C(C2CC2)c2ccccc21 (single isomer, unassigned; (-)) | > 1000
CCN1C(=O)C(NC(=O)Cc2ccc(C(F)(F)F)cc2C(F)(F)F)N=C(C2CC2)c2ccccc21 (stereo in doubt; 6 (+)) | > 1000
CC[C@@H](C)N1C(=O)C(NC(=O)Cc2ccc(C(F)(F)F)cc2C(F)(F)F)N=C(c2ccccc2)c2ccccc21 (stereo in doubt; 15 (-)) | > 1000
O=C(Cc1ccc(C(F)(F)F)cc1C(F)(F)F)N[C@@H]1N=C(c2ccccc2)c2ccccc2N(CC(F)(F)F)C1=O [L-768673] | 6000

System: Canis familiaris
Assay: QTc interval of compound was measured in chloralose anesthetized dogs(for its Class III activity in vivo) at dose of 0.01 mg/kg (iv); units are msec/square root of sec
Type: functional, Canis lupus familiaris
Conditions: not given

SMILES | QTc Interval [ms s-1]
CC[C@@H](C)N1C(=O)C(NC(=O)Cc2ccc(C(F)(F)F)cc2C(F)(F)F)N=C(C2CC2)c2ccccc21 (single isomer, unassigned; (-)) | 392

System: Canis familiaris
Assay: Ventricular relative Refractory period (msec) of compound was measured in chloralose anesthetized dogs (for its Class III activity in vivo) at dose of 0.001 mg/kg (iv)
Type: functional, Canis lupus familiaris, Heart
Conditions: not given

SMILES | Ventricular relative refractory period [ms]
CC[C@@H](C)N1C(=O)C(NC(=O)Cc2ccc(C(F)(F)F)cc2C(F)(F)F)N=C(C2CC2)c2ccccc21 (single isomer, unassigned; (-)) | 176

System: Canis familiaris
Assay: Ventricular relative Refractory period (msec) of compound was measured in chloralose anesthetized dogs (for its Class III activity in vivo) at dose of 0.1 mg/kg (iv)
Type: functional, Canis lupus familiaris, Heart
Conditions: not given

SMILES | Ventricular relative refractory period [ms]
CC[C@@H](C)N1C(=O)C(NC(=O)Cc2ccc(C(F)(F)F)cc2C(F)(F)F)N=C(C2CC2)c2ccccc21 (single isomer, unassigned; (-)) | 198

System: Canis familiaris
Assay: QTc interval of compound was measured in chloralose anesthetized dogs(for its Class III activity in vivo) at dose of 0.1 mg/kg (iv); units are msec/square root of sec
Type: functional, Canis lupus familiaris
Conditions: not given

SMILES | QTc Interval [ms s-1]
CC[C@@H](C)N1C(=O)C(NC(=O)Cc2ccc(C(F)(F)F)cc2C(F)(F)F)N=C(C2CC2)c2ccccc21 (single isomer, unassigned; (-)) | 454

System: Canis familiaris
Assay: QTc interval of compound was measured in chloralose anesthetized dogs(for its Class III activity in vivo) at dose of 0.001 mg/kg (iv); units are msec/square root of sec
Type: functional, Canis lupus familiaris
Conditions: not given

SMILES | QTc Interval [ms s-1]
CC[C@@H](C)N1C(=O)C(NC(=O)Cc2ccc(C(F)(F)F)cc2C(F)(F)F)N=C(C2CC2)c2ccccc21 (single isomer, unassigned; (-)) | 384

Species: Cavia porcellus
Assay: Inhibitory concentration against IKs current was measured in isolated guinea pig myocytes during a 1 s voltage clamp step […]
Type: functional
Conditions: not given

IC50 [nM] | SMILES
165 | CCCN1C(=O)C(NC(=O)Cc2ccc(C(F)(F)F)cc2C(F)(F)F)N=C(C2CC2)c2ccccc21 (single isomer, unassigned; (+))
50 | CC[C@@H](C)N1C(=O)C(NC(=O)Cc2ccc(C(F)(F)F)cc2C(F)(F)F)N=C(C2CC2)c2ccccc21 (single isomer, unassigned; (+))
180 | CC[C@H](C)N1C(=O)C(NC(=O)Cc2ccc(C(F)(F)F)cc2C(F)(F)F)N=C(C2CC2)c2ccccc21 (single isomer, unassigned; (+))
1.2 | CCCN1C(=O)C(NC(=O)Cc2ccc(C(F)(F)F)cc2C(F)(F)F)N=C(C2CC2)c2ccccc21 (single isomer, unassigned; (-))
4 | CCN1C(=O)C(NC(=O)Cc2ccc(C(F)(F)F)cc2C(F)(F)F)N=C(C2CC2)c2ccccc21 (single isomer, unassigned; (-))
0.08 | CC[C@@H](C)N1C(=O)C(NC(=O)Cc2ccc(C(F)(F)F)cc2C(F)(F)F)N=C(C2CC2)c2ccccc21 (single isomer, unassigned; (-))
280 | CN1C(=O)C(NC(=O)Cc2ccc(C(F)(F)F)cc2C(F)(F)F)N=C(C2CC2)c2ccccc21 (single isomer, unassigned; (-))
0.4 | CC[C@H](C)N1C(=O)C(NC(=O)Cc2ccc(C(F)(F)F)cc2C(F)(F)F)N=C(C2CC2)c2ccccc21 (single isomer, unassigned; (-))
38 | CN1C(=O)C(NC(=O)Cc2ccc(C(F)(F)F)cc2C(F)(F)F)N=C(C2CC2)c2ccccc21 (stereo in doubt; 4 (+))
200 | CCN1C(=O)C(NC(=O)Cc2ccc(C(F)(F)F)cc2C(F)(F)F)N=C(C2CC2)c2ccccc21 (stereo in doubt; 6 (+))

SMILES | IC50 [nM]
CC[C@@H](C)N1C(=O)C(NC(=O)Cc2ccc(C(F)(F)F)cc2C(F)(F)F)N=C(c2ccccc2)c2ccccc21 (single isomer, unassigned; (+)) | 3.7
CC[C@@H](C)N1C(=O)C(NC(=O)Cc2ccc(C(F)(F)F)cc2C(F)(F)F)N=C(c2ccccc2)c2ccccc21 (stereo in doubt; 15 (-)) | 44

Same assay, conditions: Cavia porcellus

IC50 [nM] | SMILES
6 | CC(C)C1=NC(NC(=O)Cc2ccc(C(F)(F)F)cc2C(F)(F)F)C(=O)N(CC(F)(F)F)c2ccccc21 (configuration not stated)
1.5 | O=C(Cc1ccc(C(F)(F)F)cc1C(F)(F)F)NC1N=C(C2CC2)c2ccccc2N(CC(F)(F)F)C1=O (single isomer, unassigned; (+))

SMILES | IC50 [nM]
O=C(Cc1ccc(C(F)(F)F)cc1C(F)(F)F)N[C@@H]1N=C(c2ccccc2)c2ccccc2N(CC(F)(F)F)C1=O [L-768673] | 6

System: Canis familiaris
Assay: Ventricular relative Refractory period (msec) of compound was measured in chloralose anesthetized dogs (for its Class III activity in vivo) at dose of 0.01 mg/kg (iv)
Type: functional, Canis lupus familiaris, Heart
Conditions: not given

SMILES | Ventricular relative refractory period [ms]
CC[C@@H](C)N1C(=O)C(NC(=O)Cc2ccc(C(F)(F)F)cc2C(F)(F)F)N=C(C2CC2)c2ccccc21 (single isomer, unassigned; (-)) | 180

System: not listed separately
Assay: Percent metabolized in an in vitro human liver microsomal incubation assay after 60 min
Type: ADME, Microsome
Conditions: liver microsomes, read-out: Metabolism

metabolised at 1 h [%] | SMILES
70 | CC(C)C1=NC(NC(=O)Cc2ccc(C(F)(F)F)cc2C(F)(F)F)C(=O)N(CC(F)(F)F)c2ccccc21 (configuration not stated)
~15 | O=C(Cc1ccc(C(F)(F)F)cc1C(F)(F)F)NC1N=C(C2CC2)c2ccccc2N(CC(F)(F)F)C1=O (single isomer, unassigned; (+))
